Assay results published in PubChem BioAssay AID1645866 (Buhrlage Lab, Dana-Farber Cancer Institute and Novartis …, 2021).
Active and inactive are the calls of the source.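 Rule for the calls: active = in confirmatory dose-response testing, peak deubiquitinase inhibition of 30% or more; inactive = the rest.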

Biological target: Ubiquitin carboxyl-terminal hydrolase 28 (Homo sapiens) (UniProt Q96RU2)
Experiment: Ubiquitin-specific peptidase 28 DUB inhibitors, biochemical concentration-dependence assay, validation of primary screening hits (AID 1645866)
Conditions: purified USP28, ubiquitin-rhodamine fluorescence, 30 min

Sequence of Ubiquitin carboxyl-terminal hydrolase 28 (Homo sapiens) (Q96RU2 whole entry, looked up): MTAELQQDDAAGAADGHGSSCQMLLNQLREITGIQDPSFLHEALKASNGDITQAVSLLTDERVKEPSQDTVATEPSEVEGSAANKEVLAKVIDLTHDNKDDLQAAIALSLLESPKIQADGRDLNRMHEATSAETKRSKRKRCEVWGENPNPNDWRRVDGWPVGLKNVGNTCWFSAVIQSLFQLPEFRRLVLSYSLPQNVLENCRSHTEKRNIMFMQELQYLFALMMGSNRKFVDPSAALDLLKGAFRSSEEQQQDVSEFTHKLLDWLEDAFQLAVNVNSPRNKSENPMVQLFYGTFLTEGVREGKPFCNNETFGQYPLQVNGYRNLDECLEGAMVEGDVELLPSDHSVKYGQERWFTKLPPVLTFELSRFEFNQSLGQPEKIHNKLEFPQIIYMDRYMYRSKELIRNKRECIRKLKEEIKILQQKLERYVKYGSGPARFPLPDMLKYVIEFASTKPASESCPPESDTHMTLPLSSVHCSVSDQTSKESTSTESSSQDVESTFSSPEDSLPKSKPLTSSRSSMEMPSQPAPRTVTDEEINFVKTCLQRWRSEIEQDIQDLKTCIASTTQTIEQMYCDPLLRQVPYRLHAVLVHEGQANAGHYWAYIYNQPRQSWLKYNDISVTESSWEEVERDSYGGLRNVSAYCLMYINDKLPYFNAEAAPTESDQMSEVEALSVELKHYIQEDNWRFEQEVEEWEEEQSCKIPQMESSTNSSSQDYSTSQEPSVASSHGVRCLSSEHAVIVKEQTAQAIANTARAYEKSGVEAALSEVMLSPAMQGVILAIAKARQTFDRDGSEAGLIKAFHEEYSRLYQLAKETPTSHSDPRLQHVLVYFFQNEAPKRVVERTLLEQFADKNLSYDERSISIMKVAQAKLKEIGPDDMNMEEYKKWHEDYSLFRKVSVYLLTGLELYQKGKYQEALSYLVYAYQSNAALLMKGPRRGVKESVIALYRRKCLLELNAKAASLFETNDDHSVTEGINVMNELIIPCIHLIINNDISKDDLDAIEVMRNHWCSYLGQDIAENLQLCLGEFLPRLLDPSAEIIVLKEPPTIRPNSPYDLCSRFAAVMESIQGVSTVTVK

COc1ccc(C2CC(=O)Nc3ccc4ccccc4c32)c(OC)c1OC (configuration not stated)
IC50: 47.8 µM

COc1ccccc1CNC(=O)C1CCCN(c2nc3ccsc3c(=O)s2)C1 (configuration not stated)
IC50: 9.07 µM

O=C(Nc1ccc2ccccc2n1)c1ccc(Cl)cc1
IC50: 6.26 µM

CC(C)Cn1cc(OC(=O)c2ccc(F)cc2)c2c1nc(-c1ccc(F)cc1)n1c3ccccc3nc21
IC50: > 50 µM (inactive)

c1ccc(-n2nnc(-c3noc(-c4ccccn4)n3)c2-c2ccncc2)cc1
IC50: 23.9 µM

COc1ccc(OC)c(NC(=O)CS(=O)(=O)c2cn(CC(=O)N3CCC(C)CC3)c3ccccc23)c1
IC50: 25 µM

CC(=O)Nc1ccc(Cc2nc(-c3ccc4c(c3)nc(C)c(=O)n4C3CCCC3)no2)cc1
IC50: > 50 µM (inactive)

Cc1cnnn1-c1ccc(C(=O)Nc2cc(Cl)ccc2Cl)cc1
IC50: 43.5 µM

COC(=O)[C@]1(O)O[C@@]2(C(=O)OC)c3c(oc4cc(C)cc(O)c4c3=O)[C@H]3c4c(oc5cc(C)cc(O)c5c4=O)C[C@H]1[C@H]32
IC50: > 50 µM (inactive)

Cc1ccc(OCC(=O)Nc2cccc(-c3nc4ncccc4o3)c2)c(C)c1
IC50: 38.5 µM

CC(C)(C)C(=O)[C@@H]1[C@@H](C(=O)c2ccc3c(c2)OCO3)[C@@]2(C(=O)Nc3ccccc32)[C@H]2c3ccccc3C=CN12
IC50: 44.5 µM

Cc1noc(-c2cccc(=O)n2CC(=O)Nc2ccc(C)c(C)c2)n1
IC50: 17.4 µM

Cc1ccc(-n2c(-c3ccccc3)cn3c4c(=O)[nH]c(=O)n(C)c4nc23)cc1Cl
IC50: 0.305 µM

c1ccc(-n2nnc(-c3noc(-c4cccnc4)n3)c2-c2ccncc2)cc1
IC50: 21 µM

C=C(NC(=O)C(=C)NC(=O)c1csc(C2=N[C@@H]3c4csc(n4)[C@H]4NC(=O)c5csc(n5)[C@H]([C@](C)(O)[C@@H](C)O)NC(=O)C5CSC(=N5)/C(=C/C)NC(=O)C([C@@H](C)O)NC(=O)c5csc(n5)[C@]3(CC2)NC(=O)[C@H](C)NC(=O)C(=C)NC(=O)[C@H](C)NC(=O)C([C@@H](C)CC)NC2C=Cc3c(C(C)O)cc(nc3[C@H]2O)C(=O)OC4C)n1)C(N)=O (some centres not stated)
IC50: > 50 µM (inactive)

Cc1noc(-c2cc(=O)n(CC(=O)NCc3ccccc3)c3ccccc23)n1
IC50: 25.1 µM

Cn1c2ccccc2c2ncn(Cc3ccc(F)cc3)c(=O)c21
IC50: 6.71 µM

O=C(CNc1nc(Nc2ccccc2F)nc(Nc2ccccc2F)n1)Nc1ccccc1
IC50: 27 µM

COc1ccc(/C=C\c2nccc3c2[nH]c2ccccc23)cc1
IC50: > 50 µM (inactive)

O=C(NCc1ccc(F)cc1)C1CCCN(c2cnc3nccnc3c2)C1 (configuration not stated)
IC50: > 50 µM (inactive)

O=C(c1ccco1)N1CCCC2(C1)Nc1cccnc1NC2=NC1CCCC1 (configuration not stated)
IC50: > 50 µM (inactive)

c1ccc(-c2nc(-c3nnn(-c4ccccc4)c3-c3ccncc3)no2)cc1
IC50: 12.5 µM

COc1ccc(-c2cc(-c3nnc4n3CCCCC4)n(-c3ccccc3)n2)cc1
IC50: 20.1 µM

COc1ccc(C)cc1NC(=O)C1CC(=O)Nc2nc3ccccc3n21 (configuration not stated)
IC50: 24.4 µM

O=C(NCCc1ccco1)c1ccc(N2CCOc3ccccc32)s1
IC50: 22.4 µM

Cc1ccc(Cl)cc1NC(=O)c1cc(-c2ccccn2)n[nH]1
IC50: 13.4 µM

Cc1cc(C(=O)NC2(O)C(=O)c3ccccc3C2=O)n(C)n1
IC50: 19 µM

NS(=O)(=O)c1cccc(NS(=O)(=O)c2ccc(/C=C/C(=O)OCC(=O)c3ccc(Br)cc3)cc2)c1
IC50: > 50 µM (inactive)

C=C[C@]1(C)C=C2C(=O)[C@]3(O)OC(=O)[C@@]4(CCCC(C)(C)[C@H]34)[C@@]2(O)CC1
IC50: 27.6 µM

Cc1cc(NC(=O)c2cc(-c3cccnc3)n[nH]2)ccc1Br
IC50: 1.03 µM

CN(C)c1cccc(C(=O)Nc2cc(-c3cccnc3)no2)c1
IC50: 13.5 µM

CCOc1ccc(-n2c(SCC(=O)N3CC(=O)Nc4ccccc43)nnc2-c2ccc(OC)cc2)cc1
IC50: 25.2 µM

O=C(Nc1ccc(Br)cn1)c1nc2ccccc2nc1N1CCCCC1
IC50: > 50 µM (inactive)

Cc1cccc(C(=O)Nc2ccc3c(c2)nc(CSc2nccc(C)n2)n3C)c1
IC50: < 0.05 µM

NC(=O)CCC(=O)N[C@H]1C[C@H]2CN(Cc3ccccc3)c3ccccc3CN2C1
IC50: > 50 µM (inactive)

COc1ccc2nc(-c3ccc(NC(=O)c4cccc(OC)c4OC)cc3)cn2n1
IC50: 2.43 µM

Cn1cc(NC(=O)Nc2cccc3ccccc23)c2ccccc21
IC50: 16.5 µM

COc1cccc(CC(=O)Nc2cc(F)c3nc(N4CCOCC4)ccc3c2)c1
IC50: > 50 µM (inactive)

FC(F)(F)c1ccccc1CCN1CCc2nc3ncc(Cl)cc3cc2C1
IC50: > 50 µM (inactive)

CC1CCCN1C(=O)c1ccn(-c2ccc3ccc(-c4cccnc4)cn23)n1 (configuration not stated)
IC50: > 50 µM (inactive)

O=C(NCc1ccc(F)cc1)N1CCC2(C1)Nc1cccnc1NC2=NCc1ccccc1 (configuration not stated)
IC50: > 50 µM (inactive)

CC(CCc1ccccc1)NC(=O)Cn1c(=O)c2cccn2c2ccccc21 (configuration not stated)
IC50: 14.3 µM

CC(C)c1nc2sc3c(NCc4ccco4)ncnc3c2c2c1CCC2
IC50: 3.08 µM

O=C(Nc1nc2ccccc2s1)c1ccc2c(c1)C(=O)N(Cc1cccnc1)C2=O
IC50: 1.93 µM

COc1cccc(N2CCN(c3ccc4nnc(CCC(=O)N5CCc6ccccc6C5)n4n3)CC2)c1
IC50: 22.8 µM

CCCCCCCc1cc(O)cc(OC(=O)c2c(CCCCCCC)cc(O)cc2O[C@H]2O[C@H](C(O)CO)[C@@H](O)[C@@H]2O)c1 (some centres not stated)
IC50: 2.18 µM

CC1=C(Cn2c3cccc(=O)c-3nc3ccccc32)CCC(C)(C)C1
IC50: 2.02 µM

COc1ccc(NC(=O)CSc2nnc(Cc3cccc4ccccc34)n2C)cc1
IC50: 17.5 µM

Cc1noc(-c2cccn(Cc3cccc(C(F)(F)F)c3)c2=O)n1
IC50: 8.11 µM

CN(C)c1ccc(C2CC(c3c(O)n(C)c(=O)[nH]c3=O)=Nc3ccccc3S2)cc1 (configuration not stated)
IC50: 2.12 µM

CN1C(=O)[C@@]23C[C@]4([C@@]56C[C@]78SS[C@](CO)(C(=O)N7[C@@H]5Nc5ccccc56)N(C)C8=O)c5ccccc5N[C@@H]4N2C(=O)[C@]1(CO)SS3
IC50: > 50 µM (inactive)

Cc1cc(NC(=O)COc2ccc3oc4ccccc4c3c2)no1
IC50: 26.5 µM

CC(C)N(C(=O)Cn1c(=O)[nH]c2ccccc21)c1ccccc1
IC50: > 50 µM (inactive)

O=C(Nc1ccc2c(c1)OCO2)c1[nH]nc2c1CCc1ccccc1-2
IC50: 8.02 µM

O=C(/C=C/c1c(F)cccc1Cl)N1CCc2ccccc2C1
IC50: 36.3 µM

CCc1ccccc1NC(=O)c1cc(-c2ccccn2)n[nH]1
IC50: 46.1 µM

O=C1C=C(O)c2c(O)cccc2C1=O
IC50: 15.7 µM

O=C(Nc1cccc(Cl)c1)N1CCN(c2cc(C(F)(F)F)ccn2)CC1
IC50: 25.1 µM

O=C(O)c1ccccc1C(=O)Nc1ccc(SC(C(=O)Nc2cccc(Cl)c2)c2ccccc2)cc1 (configuration not stated)
IC50: 22.4 µM

O=C(Nc1ccc(F)cc1F)NC1Cc2ccccc2C1
IC50: 44.1 µM

COc1ccc2c(c1)c(N1CCCC1=O)c(C(=O)NCc1cccc(OC)c1OC)n2C
IC50: > 50 µM (inactive)

CCc1cccc(CC)c1NC(=O)COC(=O)c1cc2cccc(OC)c2oc1=O
IC50: 16.4 µM

Cc1nnc(NCc2cccnc2)c2c1nnn2Cc1ccccc1Cl
IC50: 26.4 µM

Cc1ccc(C(C)C)cc1OCCOCCN1CCNCC1
IC50: 19.8 µM

Cc1[nH]nc(NC(=O)C2COc3ccccc3O2)c1-c1ccccc1 (configuration not stated)
IC50: 15.1 µM

O=C(CSc1ccc(-c2cccc([N+](=O)[O-])c2)nn1)Nc1cccc(F)c1
IC50: 2.23 µM

CS(=O)(=O)N1CCCN(c2nc3cc(Cl)ccc3n3cccc23)CC1
IC50: > 50 µM (inactive)

c1ccc2c(-c3nc(C4CC4)no3)nnc(NCc3ccncc3)c2c1
IC50: 35.9 µM

Cc1cnnn1-c1ccc(C(=O)Nc2ccc(Cl)cc2)cc1
IC50: 20.3 µM

CC1=CC(=O)C(C2=C(O)C(=O)C(C)=CC2=O)=C(O)C1=O
IC50: 20.3 µM

CNC(=O)c1c2n(c3ncccc13)CCN(S(=O)(=O)c1ccc(-c3ccccc3)cc1)C2
IC50: 10.2 µM

O=C(Cn1c(=O)n(Cc2ccc(F)cc2)c(=O)c2ncccc21)Nc1ccccc1
IC50: 29.5 µM

COc1ccc(C)cc1NC(=O)C(NS(=O)(=O)c1ccc2c(c1)CCN2C(C)=O)C(C)C (configuration not stated)
IC50: > 50 µM (inactive)

CCOC(=O)c1c(C)oc2nc(CSc3ccccc3)[nH]c(=O)c12
IC50: 17 µM

Cc1nc2cc(NC(=O)C3CN(C(=O)c4cnccn4)C3)ccc2s1
IC50: 9.44 µM

COc1ccc(Cl)cc1N1C(=O)[C@H]2[C@@H](C1=O)[C@]1(C(=O)Nc3c(C)cc(C)cc31)N1CCC[C@@H]21
IC50: > 50 µM (inactive)

COc1ccc(CNC(=O)c2[nH]nc3c2CCc2ccccc2-3)cc1
IC50: 36.1 µM

O=C1C=CC(O)C2C1CC13SSC4(CC5C(=O)C=CC(O)C5N4C1=O)C(=O)N23 (configuration not stated)
IC50: > 50 µM (inactive)

CCOC(=O)c1c(C)nc2n(Cc3ccccc3)c3ccccc3n12
IC50: 21.7 µM

Cc1cccc(Cl)c1NC(=O)Nc1ccc(NC(=O)c2ccccc2O)cc1
IC50: 27 µM

CCOc1ccc(NC(=O)Cn2c(=O)n(CCC(=O)NCc3ccco3)c(=O)c3ccccc32)cc1
IC50: 4.44 µM

CC1=C(c2ccc(F)cc2)S(=O)(=O)N=C1Nc1ccc(Cl)cc1
IC50: 28.1 µM

CCC(=O)Nc1nc2cc(NC(=O)Nc3cc(C)cc(C)c3)ccc2s1
IC50: 2.97 µM

CCOc1ccc(NC(=O)Cn2cnc(S(=O)(=O)N3CCc4ccccc43)c2)cc1
IC50: 27.6 µM

CCCC[C@@H](C)/C=C(C)/C=C(\C)C(=O)NC1=C[C@](O)(/C=C/C=C/C=C/C(=O)NC2=C(O)CCC2=O)[C@@H]2O[C@@H]2C1=O
IC50: 2.56 µM

O=C1COc2ccccc2N1Cc1noc(-c2ccccc2)n1
IC50: 4.6 µM

O=C(COc1nsnc1N1CCOCC1)Nc1ccccc1F
IC50: > 50 µM (inactive)

CC(=O)O[C@H]1[C@]2(O)C[C@]34SS[C@](CO)(C(=O)N3[C@@H]2C[C@@]12O[C@@H](C)C(C)(C)C2=O)N(C)C4=O
IC50: > 50 µM (inactive)

COc1ccc(NC(=O)c2ccc(Nc3nnc(C)c4ccccc34)cc2)cc1
IC50: 22.5 µM

Fc1cccc(Cn2cc(-c3noc(-c4ccncc4)n3)nn2)c1
IC50: 24.9 µM

COc1cccc(C(=O)NCC(=O)Nc2nc3ccccc3[nH]2)c1
IC50: 43.8 µM

COc1cccc(NC(=O)C2Cc3ccccc3N2C(=O)c2ccccc2)c1 (configuration not stated)
IC50: 22.6 µM

O=C(Nc1nnc2n1CCCS2)c1cc2ccccc2o1
IC50: 4.43 µM

Cc1cccc(NC(=O)c2ccn(COc3ccc(F)cc3F)n2)c1C
IC50: > 50 µM (inactive)

CCc1nc(N2CCCC2=O)sc1C(=O)Nc1cccc(C(C)=O)c1
IC50: 17.1 µM

COC(=O)C1C(c2ccc(Cl)cc2Cl)C2(C(=O)c3ccccc3C2=O)C2C=Cc3ccccc3N12 (configuration not stated)
IC50: > 50 µM (inactive)

O=C(NCc1ccc(Cl)cc1)Nc1cccc2ccccc12
IC50: 40.4 µM
